Some results are limits rather than exact numbers.

The experiment can be described thus: Inhibition of Human immunodeficiency virus integrase.
`Cc1ccc2c(O)c(C(=O)O)ccc2n1`: the IC50 is 47 µM.

The compound `CC(=O)NC1=CC(=O)c2ccc(C)nc2C1=O` came in with a half-inhibitory concentration (IC50) of 77 µM. This IC50 lies about 1.6-fold higher than the previous one.

In turn, `Cc1ccc2ccc(C(=O)O)c(O)c2n1` yielded a half-inhibitory concentration (IC50) of more than 100 µM.

What is called IC50 is the concentration needed to halve the response being measured.

The values above are taken from ChEMBL document CHEMBL1681727, “X-ray and molecular modelling in fragment-based design of three small quinoline scaffolds for HIV integrase inhibitors” (Bioorg Med Chem, 2011).
